Source: article PMC9780937 (Molecules, 2022)
“Also recorded” adds a separate entry of the source.

How the values were obtained:
MOR = biological target: MOR; design: method as in suppl. ref 1; conditions: radioligand competitive binding; ref suppl. ref 1; read-out: Binding affinity Ki, MOR; cited from earlier work
[1] = test system: neuropeptide FF receptor (NPFFR); design: method as in PMID 29708942; conditions: in vitro; cited from earlier work
mice [2] = assay: Open-field test, spontaneous locomotor activity; format: in vivo, mouse (male CD1); conditions: 7.4 µmol/kg s.c. daily for 4 days, vs saline; 30 min recording; n = 8 mice per group
human MOR [3] = biological target: T1, human MOR (Homo sapiens, UniProt P35372); assay: biochemical; format: biochemical
mice [4] = test system: mice; design: method as in suppl. ref 1; conditions: acute s.c., at effective antinociceptive doses, ref suppl. ref 1; cited from earlier work
mice [5] = conditions: chronic s.c., at effective antinociceptive doses (7.4 µmol/kg), ref 19 (suppl. ref 1); cited from earlier work
DOR [6] = test system: DOR; design: method as in 2 sources, one per row (each row's own in cited_ref): ref 19 = [19]; PMID 29708942; doi:10.1097/j.pain.0000000000001262; 19. Drieu La Rochelle A. Guillemyn K. Dumitrascuta M. Martin C. Utard V. Quillet R. Schneider S. Daubeuf F. Willemse T. Mampuys P. A bifunctional-biased mu-opioid agonist-neuropeptide FF receptor anta ||| ref suppl. ref 1; conditions: cited from earlier work
mice [7] = test system: mice; design: method as in suppl. ref 1; conditions: acute s.c., at effective antinociceptive doses, ref suppl. ref 1; cited from earlier work; remark: listed apart in the source
human MOR [8] = test system: human MOR; design: method as in 2 sources, one per row (each row's own in cited_ref): ref 19 = [19]; PMID 29708942; doi:10.1097/j.pain.0000000000001262; 19. Drieu La Rochelle A. Guillemyn K. Dumitrascuta M. Martin C. Utard V. Quillet R. Schneider S. Daubeuf F. Willemse T. Mampuys P. A bifunctional-biased mu-opioid agonist-neuropeptide FF receptor anta ||| ref 19 (suppl. ref 1); conditions: cited from earlier work
NOP receptor [9] = biological target: NOP receptor; design: method as in suppl. ref 1; conditions: radioligand competitive binding; ref suppl. ref 1; read-out: Binding affinity Ki, NOP receptor; cited from earlier work
DOR [10] = test system: DOR; design: method as in 2 sources, one per row (each row's own in cited_ref): ref 19 = [19]; PMID 29708942; doi:10.1097/j.pain.0000000000001262; 19. Drieu La Rochelle A. Guillemyn K. Dumitrascuta M. Martin C. Utard V. Quillet R. Schneider S. Daubeuf F. Willemse T. Mampuys P. A bifunctional-biased mu-opioid agonist-neuropeptide FF receptor anta ||| ref suppl. ref 1; conditions: cited from earlier work; remark: listed apart in the source
mice [11] = conditions: chronic s.c., at effective antinociceptive doses (7.4 µmol/kg), ref 19 (suppl. ref 1); cited from earlier work; remark: listed apart in the source
mice [12] = test system: mice; design: method as in earlier work; conditions: s.c., ref 19 (suppl. ref 1); cited from earlier work
human MOR [13] = biological target: T1, human MOR; assay: cell-based; format: cell-based
NPFF1R = test system: NPFF1R; design: method as in suppl. ref 1; conditions: [35S]GTPγS binding assay; ref suppl. ref 1; cited from earlier work
mice [14] = test system: mice; design: method as in 2 sources, ref 19 (suppl. ref 1) ||| ref 19 = [19]; PMID 29708942; doi:10.1097/j.pain.0000000000001262; 19. Drieu La Rochelle A. Guillemyn K. Dumitrascuta M. Martin C. Utard V. Quillet R. Schneider S. Daubeuf F. Willemse T. Mampuys P. A bifunctional-biased mu-opioid agonist-neuropeptide FF receptor anta; conditions: s.c., cited from earlier work
mice [15] = test system: mice; design: method as in earlier work; conditions: s.c., 7.4 µmol/kg where stated (mechanical and thermal stimulation), ref 19 (suppl. ref 1); cited from earlier work
mice [16] = conditions: acute s.c., at effective antinociceptive doses (7.4 µmol/kg), ref 19 (suppl. ref 1); cited from earlier work
KOR = test system: KOR; design: method as in 2 sources, one per row (each row's own in cited_ref): ref 19 = [19]; PMID 29708942; doi:10.1097/j.pain.0000000000001262; 19. Drieu La Rochelle A. Guillemyn K. Dumitrascuta M. Martin C. Utard V. Quillet R. Schneider S. Daubeuf F. Willemse T. Mampuys P. A bifunctional-biased mu-opioid agonist-neuropeptide FF receptor anta ||| ref suppl. ref 1; conditions: cited from earlier work
mice [17] = conditions: chronic s.c., at effective antinociceptive doses (7.4 µmol/kg), ref 19 (suppl. ref 1); cited from earlier work; remark: listed apart in the source
NOP receptor [18] = test system: NOP receptor; design: method as in 2 sources, one per row (each row's own in cited_ref): ref 19 = [19]; PMID 29708942; doi:10.1097/j.pain.0000000000001262; 19. Drieu La Rochelle A. Guillemyn K. Dumitrascuta M. Martin C. Utard V. Quillet R. Schneider S. Daubeuf F. Willemse T. Mampuys P. A bifunctional-biased mu-opioid agonist-neuropeptide FF receptor anta ||| ref suppl. ref 1; conditions: cited from earlier work
mice [19] = assay: Conditioned place preference (CPP) test, rewarding effects; format: in vivo, mouse (male CD1); conditions: 7.4 µmol/kg s.c. daily for 4 days, vs saline; n = 8 mice per group
NPFF2R = test system: NPFF2R; design: method as in suppl. ref 1; conditions: [35S]GTPγS binding assay; ref suppl. ref 1; cited from earlier work
[20] = cAMP accumulation assay, ref suppl. ref 1

T1 sequence (P35372 whole entry): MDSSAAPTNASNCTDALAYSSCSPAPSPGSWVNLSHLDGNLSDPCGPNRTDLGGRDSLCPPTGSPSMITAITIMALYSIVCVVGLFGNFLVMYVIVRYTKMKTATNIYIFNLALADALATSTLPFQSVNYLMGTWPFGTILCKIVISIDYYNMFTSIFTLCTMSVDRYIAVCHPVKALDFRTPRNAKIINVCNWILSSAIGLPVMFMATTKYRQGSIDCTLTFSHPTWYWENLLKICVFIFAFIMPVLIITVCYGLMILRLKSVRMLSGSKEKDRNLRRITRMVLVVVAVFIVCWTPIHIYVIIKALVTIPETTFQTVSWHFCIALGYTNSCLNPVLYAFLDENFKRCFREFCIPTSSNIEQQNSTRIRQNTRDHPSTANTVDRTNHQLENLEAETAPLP

SMILES: Cc1cc(O)cc(C)c1C[C@H](N)C(=O)N[C@H](CCCNC(=N)N)C(=O)NC1Cc2ccccc2CN(CCC(=O)NC(CCCN2CCC(Cc3ccccc3)CC2)C(=O)N[C@@H](Cc2ccccc2)C(N)=O)C1=O (stereo partly drawn) [KGFF09, H-Dmt-DArg-Aba-βAla-Bpa-Phe-NH2]
- Ki (MOR): 2.43 nM
- Functional profile at NPFFR [1]: NPFFR antagonist
- Spontaneous locomotor activity, distance traveled (mice [2]): no and no impairment in the locomotor activity
- Functional profile at MOR in [35S]GTPγS binding (human MOR [3]): full agonist with high G protein coupling potency
- Potency increase compared to DAMGO, G protein activation (human MOR [3]): four-fold increase in potency compared to DAMGO
- Emax (human MOR [3]; read-out: Emax, [35S]GTPγS binding): 92 ± 9%
- Sedation/motor impairment (mice [4]): yes
- Withdrawal syndrome (mice [5]): no and reduced side effects and reduced opioid-induced side effects
- Binding affinity lower at DOR than at MOR (DOR [6]; DOR vs MOR): 77 fold
- Ki (DOR [6]; radioligand competitive binding, ref suppl. ref 1, read-out: Binding affinity Ki, DOR): 186 nM
- Constipation (mice [7]): yes
- EC50 (human MOR [8]; HEK293 cells co-expressing cAMP Glosensor-20F and human MOR, ref 19 (suppl. ref 1), read-out: EC50, cAMP accumulation, MOR): 18.2 nM
- Functional profile in cAMP accumulation, MOR (human MOR [8]; HEK293 cells, human MOR): potent and full MOR agonist
- Emax, cAMP accumulation, MOR (human MOR [8]; relative to maximal effect of DAMGO (100%), HEK293 cells, ref 19 (suppl. ref 1)): 85%
- Ki (NOP receptor [9]): 209 nM
- Emax, G protein activation, DOR (DOR [10]; [20]): 90%
- Functional profile at DOR (DOR [10]): agonist activity at the delta opioid receptor (DOR)
- Opioid-induced hyperalgesia (mice [11]): no and reduced side effects and reduced opioid-induced side effects
- Antinociception, warm-water tail-withdrawal test (mice [12]): yes and potent and long-lasting antinociceptive activity and very effective with long-lasting antinociceptive effects
- β-arrestin2 recruitment (human MOR [13]): failed to robustly engage β-arrestin2 recruitment
- Emax (human MOR [13]; read-out: Emax, β-arrestin2 recruitment (PathHunter)): 57 ± 3%
- pA2, NPFF1R (NPFF1R): 7.25
- Antinociception, radiant tail-flick test (mice [14]; ref 19 (suppl. ref 1)): yes and potent and long-lasting antinociceptive activity and very effective with long-lasting antinociceptive effects
- ED90, tail-flick test (mice [14]): 7.4 µmol/kg
- Potency vs morphine, tail-flick test (mice [14]): three-fold more potent than morphine
- Relation of 7.4 µmol/kg to tail-flick ED50 (mice [14]): three-fold antinociceptive ED50 dose
- Antihyperalgesic effect, CFA-induced hyperalgesia (mice [15]): yes and potent and long-lasting antinociceptive activity and completely reduced pain behavior of mice to mechanical and thermal stimulation and very effective with long-lasting antinociceptive effects
- Respiratory depression (mice [16]): less acute side effects; also recorded: reduced opioid-induced side effects
- Emax, G protein activation, KOR (KOR; [20]): 15%
- EC50 (KOR; cAMP accumulation assay, ref suppl. ref 1, read-out: EC50, G protein activation, KOR): > 10000 nM
- Functional profile at KOR (KOR): antagonist profile
- Antinociceptive/analgesic tolerance (mice [17]): no and reduced side effects and reduced opioid-induced side effects
- Emax, G protein activation, NOP receptor (NOP receptor [18]; [20]): 7%
- EC50 (NOP receptor [18]; cAMP accumulation assay, ref suppl. ref 1, read-out: EC50, G protein activation, NOP receptor): > 10000 nM
- Functional profile at NOP receptor (NOP receptor [18]): antagonist profile
- Rewarding effect, CPP (mice [19]): no and no significant CPP response compared to saline-treated animals
- pA2, NPFF2R (NPFF2R): 7.77
